Experimental data reported in patent US20230365554A1, “SUBSTITUTED PYRROLO-PYRIDINONE DERIVATIVES AND THERAPEUTIC USES THEREOF” (The Broad Institute, Inc., priority 2020, published 2023).

What was measured:
human CSNK1A1 = human CSNK1A1 (Homo sapiens (Human), UniProt P48729); assay: CSNK1A1 Assay 2 (ADP-Glo, 1 μM ATP); type: biochemical; settings: median, Table 2, read-out: CSNK1A1 Assay 2 IC50 [mol/l] (median)
Description: CSNK1A1-inhibitory activity of compounds of the present invention in presence of 1 μM adenosine-tri-phosphate (ATP) was quantified employing the CSNK1A1 assay as described in the following paragraphs. In essence, the enzyme activity is measured by quantification of the adenosine-di-phosphate (ADP), which is generated as a co-product of the enzyme reaction, via the “ADP-Glo™ Kinase Assay” kit from the company Promega. This detection system works as follows: In a first step the ATP not consumed in the kinase reaction is quantitatively converted to cAMP employing an adenylate cyclase (“ADP-Glo-reagent”), then the adenylate cyclase is stopped and the ADP generated in the kinase reaction converted to ATP which generates in a luciferase-based reaction a glow-luminescence signal (“Kinase Detection Reagent”).
(§1) Recombinant fusion protein of N-terminal Glutathion-S-Transferase (GST) and full-length human CSNK1A1, expressed by baculovirus infected insect cells and purified via Glutathion affinity chromatography, was purchased from Life Technologies (product no. PV4174) and used as enzyme. As substrate for the kinase reaction the biotinylated peptide biotin-Ahx-KRRRAL-pS-VASLPGL (C-terminus in amide form) was used which can be purchased e.g. from the company Biosyntan (Berlin-Buch, Germany).
For the assay 50 nl of a 100 fold concentrated solution of the test compound in DMSO was pipetted into a white 1536-well microtiter plate (Greiner Bio-One, Frickenhausen, Germany), 2 μL of a solution of CSNK1A1 in aqueous assay buffer [50 mM HEPES pH 7.5, 10% (v/v) glycerol, 10 mM MgCl2, 50 mM NaCl, 1 mM dithiothreitol, 0.01% (w/v) bovine serum albumin, 0.01% (v/v) Triton X-100] were added and the mixture was incubated for 15 min at 22° C. to allow pre-binding of the test compounds to the enzyme before the start of the kinase reaction. Then the kinase reaction was started by the addition of 3 μL of a solution of ATP (1.67 μM=>final conc. in the 5 μL assay volume is 1 μM) and peptide substrate (50 μM=>final conc. in the 5 μL assay volume is 30 μM) in assay buffer and the resulting mixture was incubated for a reaction time of 30 min at 22° C. The concentration of CSNK1A1 was adjusted depending of the activity of the enzyme lot and was chosen appropriate to have the assay in the linear range, a typical concentrations are about 0.0375 ng/μL. The reaction was stopped by the addition of 2.5 μL of “ADP-Glo-reagent” (1:1.5 fold diluted with water) and the resulting mixture was incubated at 22° C. for 1 h to convert the ATP not consumed in the kinase reaction completely […]. Subsequently 2.5 μL of the “kinase detection reagent” (1.2 fold more concentrated than recommended by the producer) were added, the resulting mixture was incubated at 22° C. for 1 h and then the luminescence measured with a suitable measurement instrument (e.g. Viewlux™ from Perkin-Elmer). The amount of emitted light was taken as a measure for the amount of ADP generated and thereby for the activity of the CSNK1A1.
(§2) The data were normalised (enzyme reaction without inhibitor=0% inhibition, all other assay components but no enzyme=100% inhibition).

human CSNK1D = human CSNK1D (Homo sapiens (Human), UniProt P48730); assay: CSNK1D assay (ADP-Glo, 1 μM ATP); type: biochemical; settings: median, Table 2, read-out: CSNK1D IC50 [mol/l] (median)
Chain of human CSNK1D (P48730 whole entry): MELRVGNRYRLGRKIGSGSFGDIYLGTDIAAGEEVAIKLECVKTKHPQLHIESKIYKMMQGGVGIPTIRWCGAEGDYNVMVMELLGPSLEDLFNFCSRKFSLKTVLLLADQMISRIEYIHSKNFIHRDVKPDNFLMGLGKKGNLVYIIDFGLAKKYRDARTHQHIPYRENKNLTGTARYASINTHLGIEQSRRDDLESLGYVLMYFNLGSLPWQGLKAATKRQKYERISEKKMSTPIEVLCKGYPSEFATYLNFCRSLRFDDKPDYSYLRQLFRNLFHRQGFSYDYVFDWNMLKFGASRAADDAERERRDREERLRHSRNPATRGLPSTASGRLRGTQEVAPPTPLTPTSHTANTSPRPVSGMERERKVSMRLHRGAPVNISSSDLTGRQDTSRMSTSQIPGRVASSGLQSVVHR
Description: CSNK1D-inhibitory activity of compounds of the present invention in presence of 1 μM adenosine-tri-phosphate (ATP) was quantified employing the CSNK1D assay as described in the following paragraphs. In essence, the enzyme activity is measured by quantification of the adenosine-di-phosphate (ADP), which is generated as a co-product of the enzyme reaction, via the “ADP-Glo™ Kinase Assay” kit from the company Promega. This detection system works as follows: In a first step the ATP not consumed in the kinase reaction is quantitatively converted to cAMP employing an adenylate cyclase (“ADP-Glo-reagent”), then the adenylate cyclase is stopped and the ADP generated in the kinase reaction converted to ATP which generates in a luciferase-based reaction a glow-luminescence signal (“Kinase Detection Reagent”).
as §1, with “CSNK1D,” for “CSNK1A1,”, “PV3665)” for “PV4174)”, “Btn-Ahx-SGSEGDSESGEEEG” for “biotin-Ahx-KRRRAL-pS-VASLPGL”
For the assay 50 nl of a 100 fold concentrated solution of the test compound in DMSO was pipetted into a white 1536-well microtiter plate (Greiner Bio-One, Frickenhausen, Germany), 2 μL of a solution of CSNK1D in aqueous assay buffer [50 mM HEPES pH 7.5, 10% (v/v) glycerol, 10 mM MgCl2, 50 mM NaCl, 1 mM dithiothreitol, 0.01% (w/v) bovine serum albumin, 0.01% (v/v) Triton X-100] were added and the mixture was incubated for 15 min at 22° C. to allow pre-binding of the test compounds to the enzyme before the start of the kinase reaction. Then the kinase reaction was started by the addition of 3 μL of a solution of ATP (1.67 μM=>final conc. in the 5 μL assay volume is 1 μM) and peptide substrate (50 μM=>final conc. in the 5 μL assay volume is 30 μM) in assay buffer and the resulting mixture was incubated for a reaction time of 30 min at 22° C. The concentration of CSNK1D was adjusted depending of the activity of the enzyme lot and was chosen appropriate to have the assay in the linear range, a typical concentration is about 0.5 ng/μL. The reaction was stopped by the addition of 2.5 μL of “ADP-Glo-reagent” (1:1.5 fold diluted with water) and the resulting mixture was incubated at 22° C. for 1 h to convert the ATP not consumed in the kinase reaction completely […]. Subsequently 2.5 μL of the “kinase detection reagent” (1.2 fold more concentrated than recommended by the producer) were added, the resulting mixture was incubated at 22° C. for 1 h and then the luminescence measured with a suitable measurement instrument (e.g. Viewlux™ from Perkin-Elmer). The amount of emitted light was taken as a measure for the amount of ADP generated and thereby for the activity of the CSNK1D.
as §2

Chain of human CSNK1A1 (P48729 whole entry): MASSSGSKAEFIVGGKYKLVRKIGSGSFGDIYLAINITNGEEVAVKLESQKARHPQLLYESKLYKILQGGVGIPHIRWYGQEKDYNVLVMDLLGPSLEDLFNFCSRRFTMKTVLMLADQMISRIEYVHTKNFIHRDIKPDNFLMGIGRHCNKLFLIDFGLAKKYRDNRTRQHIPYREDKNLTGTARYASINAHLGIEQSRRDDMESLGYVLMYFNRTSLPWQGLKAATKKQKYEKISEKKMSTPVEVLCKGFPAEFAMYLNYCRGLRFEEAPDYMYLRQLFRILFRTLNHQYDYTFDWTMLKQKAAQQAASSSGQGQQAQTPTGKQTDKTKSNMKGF

For `Cn1cc(CC(F)(F)F)c2[nH]c(-c3ccnc(NC(=O)C(CC(F)F)c4ccc(F)cc4)c3)c(Nc3ccccc3)c2c1=O` (racemic) [Example 35, N-{4-[3-anilino-5-methyl-4-oxo-7-(2,2,2-trifluoroethyl)-4,5-dihydro-1H-pyrrolo[3,2-c]pyridin-2-yl]pyridin-2-yl}-4,4-difluoro-2-(4-fluorophenyl)butanamide], the IC50 (human CSNK1A1) was 8 nM and the IC50 (human CSNK1D) was 5.9 nM.
